Source: publication PMC9853512 (RSC Advances, 2023)
Converted amounts (≈) assume the structure as drawn.

Columns and labels:
Type in all cases: cell-based
[1] = test system: S. aureus strain ATCC 29213; assay: MIC, two-fold microdilution assay, S. aureus; settings: Staphylococcus aureus, ATCC29213, 18 h, read-out: MIC S. Aureus ATCC 29213
[2] = test system: E. coli strain ATCC 25922; assay: MIC, two-fold microdilution assay, E. coli; settings: Escherichia coli, ATCC25922, 18 h, read-out: MIC E. coli ATCC 25922
[3] = test system: C. albicans strain ATCC14053; assay: MIC, two-fold microdilution assay, C. albicans; settings: Candida albicans, ATCC14053, 18 h, read-out: MIC C. Albicans ATCC14053
H. pylori strain SS1 = assay: MIC, two-fold microdilution assay, H. pylori; settings: Helicobacter pylori, SS1, 48 h, read-out: MIC H. pylori SS1

| MIC [1] [µg/mL] | MIC [2] [µg/mL] | MIC [3] [µg/mL] | MIC (H. pylori strain SS1) [µg/mL] | Compound |
| --- | --- | --- | --- | --- |
| 3.12 (≈ 13.9 µM) | 0.391 (≈ 1.73 µM) | > 50 | < 0.0976 | O=C1OCCN1N=Cc1ccc([N+](=O)[O-])o1 [FZD, 3-(5-nitrofurfurylideneamino)-2-oxazolidinone] |
| 25 (≈ 105 µM) | 12.5 (≈ 52.5 µM) | > 50 | – | O=C1CN(N=Cc2ccc([N+](=O)[O-])o2)C(=O)N1 [NFT, 1-(((5-nitro-2-furanyl)methylene)amino)-2,4-imidazolidinedione] |
